Values quoted from earlier work as cited in patent US20080168569A1, “Non-invasive methods and related compositions for identifying compounds that modify in vivo aggregations of disease-related polypeptides” (priority 2004, published 2008).

Test system: truncated DRPLA proteins that contain an expanded-polyglutamine domain
Conditions: in vitro; transglutaminase inhibitors

NCCSSCCN [cystamine]
formation of cellular aggregates of truncated DRPLA proteins: inhibit the formation of cellular aggregates

CN(C)c1cccc2c(S(=O)(=O)NCCCCCN)cccc12 [monodansyl cadaverine]
formation of cellular aggregates of truncated DRPLA proteins: inhibit the formation of cellular aggregates
